This is an account of results in PMC8965344 (Frontiers in Microbiology, 2022).

Like-named read-outs stand apart in the source and are kept apart here.

The target of one series is T1, human TLR2 (Homo sapiens, UniProt O60603+Q15399).
T1 construct: expressed in transfected cells; host or cells: HEK293-NF-κB-Luc cells (clone LP58), stably transfected
As to the kind of experiment: cell-based.

The conditions of series [1]: in vivo; cited from earlier work.
Series [2] concerns B. anthracis (Ames strain). Format: in vivo, Bacillus anthracis. As to conditions: 13 days.
For series [3], the system named is B. anthracis (Ames strain). It counts as in vivo, Bacillus anthracis. To be noted: for survival rate: 17 days.
For the next series, the system named is S. aureus. To be noted: in vivo; cited from earlier work.
Another series relates to B. anthracis. Further details: species or system Bacillus anthracis. As to conditions: in vivo.
For series [4], the system named is B. anthracis (Ames strain). Further details: species or system Bacillus anthracis. As to conditions: in vivo.
A further series deals with Streptococcus pneumoniae. As to conditions: in vivo; cited from earlier work.
The subject of the next series is PA. As to conditions: cited from earlier work.

T1 sequence (O60603 21-784): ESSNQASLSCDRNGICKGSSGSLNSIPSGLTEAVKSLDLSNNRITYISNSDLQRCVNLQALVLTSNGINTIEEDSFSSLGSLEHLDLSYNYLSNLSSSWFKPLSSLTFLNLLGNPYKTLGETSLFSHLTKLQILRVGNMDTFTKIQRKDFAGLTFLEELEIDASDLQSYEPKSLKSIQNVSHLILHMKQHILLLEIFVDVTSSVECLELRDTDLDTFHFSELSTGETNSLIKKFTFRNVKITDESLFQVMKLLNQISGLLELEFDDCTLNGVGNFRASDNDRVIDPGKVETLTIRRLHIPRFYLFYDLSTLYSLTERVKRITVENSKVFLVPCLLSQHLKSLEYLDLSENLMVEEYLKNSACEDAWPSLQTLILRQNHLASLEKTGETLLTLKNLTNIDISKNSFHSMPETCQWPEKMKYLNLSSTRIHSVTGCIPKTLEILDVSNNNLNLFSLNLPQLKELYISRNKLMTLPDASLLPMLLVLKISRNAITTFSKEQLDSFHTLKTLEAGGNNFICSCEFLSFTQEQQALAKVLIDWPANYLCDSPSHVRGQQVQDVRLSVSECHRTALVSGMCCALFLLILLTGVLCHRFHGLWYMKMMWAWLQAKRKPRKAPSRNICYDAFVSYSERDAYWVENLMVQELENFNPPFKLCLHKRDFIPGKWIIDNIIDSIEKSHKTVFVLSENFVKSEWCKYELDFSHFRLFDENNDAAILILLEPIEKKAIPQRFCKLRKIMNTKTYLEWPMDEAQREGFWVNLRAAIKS
T1 sequence (Q15399 25-786): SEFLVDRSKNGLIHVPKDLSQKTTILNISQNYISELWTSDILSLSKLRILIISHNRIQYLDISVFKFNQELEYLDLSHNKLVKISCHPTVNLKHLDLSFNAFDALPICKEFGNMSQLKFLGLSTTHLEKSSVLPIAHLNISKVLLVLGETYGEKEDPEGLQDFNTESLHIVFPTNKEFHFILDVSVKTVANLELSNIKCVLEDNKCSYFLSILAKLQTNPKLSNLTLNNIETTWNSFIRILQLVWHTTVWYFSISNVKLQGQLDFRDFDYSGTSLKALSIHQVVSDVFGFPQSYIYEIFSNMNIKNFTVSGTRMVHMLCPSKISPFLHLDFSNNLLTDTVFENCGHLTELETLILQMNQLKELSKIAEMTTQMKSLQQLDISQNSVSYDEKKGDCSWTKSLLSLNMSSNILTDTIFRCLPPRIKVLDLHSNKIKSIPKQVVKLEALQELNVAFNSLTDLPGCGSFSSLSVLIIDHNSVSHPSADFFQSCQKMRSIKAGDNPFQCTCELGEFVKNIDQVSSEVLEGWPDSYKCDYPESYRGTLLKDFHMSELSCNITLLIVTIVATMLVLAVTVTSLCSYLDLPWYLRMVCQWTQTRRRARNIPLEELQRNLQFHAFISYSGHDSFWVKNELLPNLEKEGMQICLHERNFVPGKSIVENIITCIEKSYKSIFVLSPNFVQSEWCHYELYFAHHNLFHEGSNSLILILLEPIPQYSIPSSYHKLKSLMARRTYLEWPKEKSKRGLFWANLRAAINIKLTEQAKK

Turning to `CCCCCCCCCCCCCCCC(=O)N[C@@H](CSC[C@@H](COC(=O)CCCCCCCCCCC)OC(=O)CCCCCCCCCCC)C(=O)N[C@@H](C)C(=O)N[C@H](CCC(=O)O)C(N)=O` [DA-98-WW07, (4R,7S,10R,14R)-4-carbamoyl-14-(dodecanoyloxy)-7-methyl-6,9,17-trioxo-10-palmitamido-16-oxa-12-thia-5,8-diazaoctacosanoic acid], at human TLR2, the EC50 came to 1.04 ± 1.16 µM and the “efficacy (% Eff), NF-κB-Luciferase” value amounted to 101.36%.

With lipopolysaccharide [LPS], on human TLR2, the “induction of NF-kB activity” value is “dose dependent induction of NF-kB activity”. For the same molecule, the “induction of IFN-γ, TNF-α and IL-6 production” value (from here on “induction of IFN-γ”) in the series with human PBMCs is “able to induce aforementioned cytokine productions with varying potency”.

Consider `CCc1nc2c(N)nc3ccccc3c2n1CCCCNS(C)(=O)=O` [PF4878691], for which the “adverse effects in patients” value in series [1] was “flu-like symptoms, lymphopenia and hypotension”.

As to `O=C(O)c1cn(C2CC2)c2cc(N3CCNCC3)c(F)cc2c1=O` [ciprofloxacin], the survival rate in series [2] turned out to be 50%.

In turn, ODN1826 gave a survival rate in series [3] of 0%.

Regarding Pam3Cys, the “protection from S. aureus endophthalmitis” value with S. aureus is “protected mice from S. aureus endophthalmitis, preserved retinal structural integrity, and maintained visual function”.

Consider Pam3CSK4, for which the “induction of NF-kB activity” value on human TLR2 is on record as “dose dependent induction of NF-kB activity”. The “survival rate after re-challenge” value with B. anthracis was 25%. The survival rate in [3] is given as 60%; in [4] it was 40%. In addition, the “protection of mice from lethal challenge of B. anthracis” value in series [3] (in vivo) was “the best at protecting mice from lethal challenge of B. anthracis”. The “induction of IFN-γ” value with human PBMCs was “able to induce aforementioned cytokine productions with varying potency”.

As for MALP-2, the “pulmonary bacterial burden in mice” value in the series with Streptococcus pneumoniae was “reduced pulmonary bacterial burden in mice”.

Take Pam2CSK4: the “induction of NF-kB activity” value at human TLR2 was “dose dependent induction of NF-kB activity”. Besides, the survival rate in [3] was determined as 20%. Further, the “induction of IFN-γ” value in the series with human PBMCs was “able to induce aforementioned cytokine productions with varying potency”.

The molecule Poly (I:C) returned a survival rate in series [3] of 20%.

B1: obiltoxaximab (antibody, chains of the INN, looked up, V domains shown)
VH: QVQLQQSGPELKKPGASVKVSCKDSGYAFSSSWMNWVRQAPGQGLEWIGRIYPGDGDTNYNGKFQGRVTITADKSSSTAYMELSSLRSEDTAVYFCARSGLLRYAMDYWGQGTLVTVSS
VL: DIQMTQSPSSLSASVGDRVTITCRASQDIRNYLNWYQQKPGKAVKLLIYYTSRLLPGVPSRFSGSGSGTDYSLTISSQEQEDIGTYFCQQGNTLPWTFGQGTKVEIR
With B1, in the series on PA, the “binding to PA and block of binding to anthrax toxin receptors” value is “bind to PA and block its binding to anthrax toxin receptors”.
